These molecules were tested against T1, human LPA1 (Homo sapiens, UniProt Q92633) (assay: In vitro LPA1 calcium flux antagonist assay, Bioduro protocol). Settings: CHO-K1 cells overexpressing human LPA1 and G15a; LPA challenge at EC80; calcium mobilization on FLIPR Tetra; read-out: IC50 (nM) in Assay B2.
T1 construct: expressed in transfected cells; host or cells: CHO-K1
Type: cell-based
Procedure: In Vitro LPA1 Calcium Flux Antagonist Assay Bioduro Protocol
CHO-K1 cells overexpressing human LPA1 and G15a were seeded at a total volume of 20 uL (15000 cells/well) into Matrigel pre-coated 384-well plates (coming -3764) and incubated at 37° C. After overnight incubation, the cells were serum starved for 4 h. Assays were performed in dye loading buffer containing 1× Fluo-8 AM (AAT Bioquest, 21080) and 2.5 mM probenecid (Thermo Fisher, 36400) in HBSS/20 mM Hepes. After cell starvation, the medium was replaced with 20 uL of dye loading buffer and incubated at 37° C. for 30 min. Then 5 uL of 5× compound titrated in dye loading buffer was added to the cells and incubated for 30 min followed by LPA challenge at EC80. Calcium mobilization was measured on a FLIPR Tetra (MDS). For LPA EC80 determination, starved cells were incubated with 20 uL of dye loading buffer for 1 h, then 5 uL of 5×LPA titrated in dye loading buffer was added to the cells. Calcium signals induced by LPA was monitors on a FLIPR.
Percentage inhibition is calculated using the following formula:
% Inhibition=100%×(1−(mean RFU of test sample−mean RFU of DMSO)/(mean RFU of LPA control−mean RFU of DMSO)).

T1 sequence (Q92633 whole entry): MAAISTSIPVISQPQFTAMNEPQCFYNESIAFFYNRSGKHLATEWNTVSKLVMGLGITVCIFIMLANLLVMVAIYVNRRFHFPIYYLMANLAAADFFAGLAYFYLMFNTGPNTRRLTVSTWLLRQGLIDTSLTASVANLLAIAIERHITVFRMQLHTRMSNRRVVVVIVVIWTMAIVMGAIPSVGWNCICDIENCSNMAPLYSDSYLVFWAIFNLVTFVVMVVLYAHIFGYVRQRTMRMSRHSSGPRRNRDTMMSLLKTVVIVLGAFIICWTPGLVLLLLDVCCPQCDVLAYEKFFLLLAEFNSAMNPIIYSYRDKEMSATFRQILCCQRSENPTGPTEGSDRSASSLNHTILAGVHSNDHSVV

SMILES | IC50 [nM]
COc1c(C)ccc([C@@H](O)[C@H](Cn2cc3nccc(C(=O)O)c3n2)OC2CCCC2)c1F [Compound 193] | 757
COc1cc([C@@H](O)[C@H](Cn2cc3c(OC)ccc(C(=O)O)c3n2)OC2CCCC2)cc(OC)c1C [Compound 216] | 9.61
COc1cc([C@@H](O)[C@H](Cn2nnc3c(C(=O)O)cccc32)OC2CCCC2)cc(OC)c1C [Compound 213] | ≥ 10000
COc1cc([C@@H](O)[C@H](Cn2cc3nc(C(N)=O)cc(C(=O)O)c3n2)OC2CCCC2)cc(OC)c1C [Compound 222] | 43.4
COc1cc([C@@H](O)[C@H](Cn2cc3nccc(C(=O)O)c3n2)OC2Cc3ccccc3C2)cc(OC)c1C [Compound 185] | 15
COc1cc([C@@H](O)[C@H](Cn2cc3c(C#N)ccc(C(=O)O)c3n2)OC2CCCC2)cc(OC)c1C [Compound 182] | 79.2
COc1cc([C@@H](O)[C@H](Cn2cc3nccc(C(=O)O)c3n2)OC2CCCC2)cc(OC)c1Br [Compound 224] | 327
COc1cc([C@@H](O)[C@H](Cn2cc3cc(C(N)=O)cc(C(=O)O)c3n2)OC2CCCC2)cc(OC)c1C [Compound 221] | 91.8
COc1cc([C@@H](O)C(Cc2nc(C3(C(=O)O)CC3)c(C)s2)OC2CCCC2)cc(OC)c1C (stereo partly shown) [Compound 207] | 723
COc1cc(C(=O)O)c2nc(C[C@H](OCC(C)C)[C@H](O)c3cc(OC)c(C)c(OC)c3)sc2c1 [Compound 236] | 9.18
COc1cc([C@H](O)[C@H](Cc2nc3c(C(=O)O)cccc3s2)OC2CCCC2)cc(OC)c1C [Compound 281] | 717
CCCc1cc(C(=O)O)c2nn(C[C@H](OC3CCCC3)[C@H](O)c3cc(OC)c(C)c(OC)c3)cc2n1 [Compound 219] | 20.4
COc1cc([C@@H](O)[C@H](Cn2cc3cccc(C(=O)NS(C)(=O)=O)c3n2)OC2CCCC2)cc(OC)c1C [Compound 171] | ≥ 10000
COc1cc([C@@H](O)[C@H](Cn2cc3nccc(C(=O)O)c3n2)OC2CCCC2)c(C)c(OC)c1C [Compound 199] | 667
COc1c(C)ccc([C@@H](O)[C@H](Cn2cc3nccc(C(=O)O)c3n2)OC2CCCC2)c1Cl [Compound 200] | 1130
COc1cc([C@@H](O)[C@H](Cn2cc3nccc(C(=O)O)c3n2)OC2CCCC2)c(C)cc1C [Compound 188] | 447

Each molecule was assayed against T1, human LPA1 (assay: In vitro LPA1 functional antagonist assay (calcium mobilization, FLIPR)). Settings: CHO-K1 cells overexpressing human LPA1; Oleoyl LPA challenge; calcium mobilization on FLIPR Tetra.
Type: cell-based
Procedure: In Vitro LPA1 Functional Antagonist Assay
CHO-K1 cells overexpressing human LPA1 were seeded in a total volume of 20 μL into black-walled, clear-bottom, Poly-D-lysine coated 384-well microplates and incubated at 37° C. for the appropriate time prior to testing. Assays were performed in 1× Dye Loading Buffer consisting of 1× Dye, 1× Additive A and 2.5 mM Probenecid in HBSS/20 mM Hepes. Probenicid was prepared fresh. Cells were loaded with dye prior to testing. Media was aspirated from cells and replaced with […] Dye Loading Buffer. Cells were incubated for 30-60 minutes at 37° C. After dye loading, cells were removed from the incubator and 10 μL 3× test compound was added. Cells were incubated for 30 minutes at room temperature in the dark to equilibrate plate temperature followed by Oleoyl LPA challenge at the 0.018 M. Compound antagonist activity was measured on a FLIPR Tetra (MDS). Calcium mobilization was monitored for 2 minutes and 10 μL Oleoyl LPA in HBSS/20 mM Hepes was added to the cells 5 seconds into the assay. Compound activity was analyzed using CBIS data analysis suite (ChemInnovation, CA). Percentage inhibition is calculated using the following formula:
% Inhibition=100%×(1−(mean RFU of test sample−mean RFU of vehicle control)/(mean RFU of LPA control−mean RFU of vehicle control)).

SMILES | IC50 [nM]
COc1cc([C@@H](O)[C@H](Cc2nc3cc(CC(=O)O)ccc3[nH]2)OC2Cc3ccccc3C2)cc(OC)c1C [Compound 115a, 2-[2-[(2S,3R)-3-(3,5-dimethoxy-4-methyl-phenyl)-3-hydroxy-2-indan-2-yloxy-propyl]-1H-benzimidazol-5-yl]acetic acid] | 30.8
N#Cc1cc([C@@H](O)[C@H](Cn2cc3cccc(C(=O)O)c3n2)OC2CCCC2)ccc1Cl [Compound 134] | > 10000
O=C(O)c1cccc2cn(C[C@H](OC3CCCC3)[C@H](O)c3ccccc3)nc12 [Compound 136] | > 10000
O=C(O)c1cccc2cn(C[C@H](OC3CCCC3)[C@@H](O)c3ccccc3)nc12 [Compound 137] | > 10000
COc1cc([C@@H](O)[C@H](Cn2cc3cccc(C(=O)O)c3n2)OC2CCCC2)ccc1Cl [Compound 126a, 2-((2S,3R)-3-(4-chloro-3-methoxyphenyl)-2-(cyclopentyloxy)-3-hydroxypropyl)-2H-indazole-7-carboxylic acid] | 64.8
COc1cc([C@@H](O)[C@H](Cc2ccn(CC(=O)O)n2)OC2CCCC2)cc(OC)c1C [Compound 116a] | 1470
COc1cc([C@@H](O)[C@H](Cc2nc(CC(=O)O)cs2)OCC2CCC2)cc(OC)c1C [Compound 122a] | 1450
COc1cc([C@@H](O)[C@H](Cn2cc3cccc(C(=O)O)c3n2)OCC2CCC2)cc(OC)c1C [Compound 118a, 2-((2S,3R)-2-(cyclobutylmethoxy)-3-(3,5-dimethoxy-4-methylphenyl)-3-hydroxypropyl)-2H-indazole-7-carboxylic acid] | 26.6
COc1cc([C@@H](O)[C@H](Cc2nc3cc(C(=O)O)ccc3[nH]2)OC2CCCC2)cc(OC)c1C [Compound 109a, 2-((2S,3R)-2-(cyclopentyloxy)-3-(3,5-dimethoxy-4-methylphenyl)-3-hydroxypropyl)-1H-benzo[d]imidazole-5-carboxylic acid] | > 10000
COc1cc([C@@H](O)[C@H](Cc2nc(CC(=O)O)cs2)OC2CCCC2)cc(OC)c1C [Compound 112a, 2-(2-((2S,3R)-2-(cyclopentyloxy)-3-(3,5-dimethoxy-4-methylphenyl)-3-hydroxypropyl)thiazol-4-yl)acetic acid] | 56.1
COc1cc([C@@H](O)[C@H](Cc2nc3c(C(=O)O)cccc3[nH]2)OC2CCCC2)cc(OC)c1C [Compound 142] | > 10000
O=C(O)c1cccc2cn(C[C@H](OC3CCCC3)[C@H](O)c3ccc(C(F)F)cc3)nc12 [Compound 128a] | 207
CCOC(=O)c1cn(C[C@H](OC2CCCC2)[C@H](O)c2cc(OC)c(C)c(OC)c2)cc1CC(=O)O [Compound 143] | 7.66
COc1cc([C@@H](O)[C@H](Cn2cc3cccc(C(=O)O)c3n2)OC2CCCC2)ccc1C(F)F [Compound 121a] | 11.2
COc1cc([C@@H](O)[C@H](Cc2ccc(CC(=O)O)c(OC)n2)OC2CCCC2)cc(OC)c1C [Compound 110a, 2-(6-((2S,3R)-2-(cyclopentyloxy)-3-(3,5-dimethoxy-4-methylphenyl)-3-hydroxypropyl)-2-methoxypyridin-3-yl)acetic acid] | 1650
COC(=O)c1cn(C[C@H](OC2Cc3ccccc3C2)[C@H](O)c2cc(OC)c(C)c(OC)c2)cc1CC(=O)O [Compound 103a, 2-(1-((2S,3R)-2-((2,3-dihydro-1H-inden-2-yl)oxy)-3-(3,5-dimethoxy-4-methylphenyl)-3-hydroxypropyl)-4-(methoxycarbonyl)-1H-pyrrol-3-yl)acetic acid] | 4.74
O=C(O)c1cccc2cn(C[C@H](OC3CCCC3)[C@H](O)c3ccc(C(F)(F)F)cc3)nc12 [Compound 124a] | 5700
COc1cc([C@@H](O)[C@H](Cc2ccc(CC(=O)O)c(OC)n2)OCCc2ccccc2)cc(OC)c1C [Compound 130a, 2-(6-((2S,3R)-3-(3,5-dimethoxy-4-methylphenyl)-3-hydroxy-2-phenethoxypropyl)-2-methoxypyridin-3-yl)acetic acid] | 1190
COc1cc([C@@H](O)[C@H](Cc2nc3cc(CC(=O)O)ccc3n2C)OCC2CCC2)cc(OC)c1C [Compound 120a, 2-[2-[(2S,3R)-2-(cyclobutylmethoxy)-3-(3,5-dimethoxy-4-methyl-phenyl)-3-hydroxy-propyl]-1-methyl-benzimidazol-5-yl]acetic acid] | > 10000
COC(=O)c1cn(C[C@H](OCCc2ccccc2)[C@@H](O)c2cc(OC)c(C)c(OC)c2)cc1CC(=O)O [Compound 132] | 1540
COc1cc([C@@H](O)[C@H](Cc2nc3cc(C(=O)O)ccc3[nH]2)OC2Cc3ccccc3C2)cc(OC)c1C [Compound 114a, 2-((2S, 3R)-2-((2,3-dihydro-1H-inden-2-yl)oxy)-3-(3,5-dimethoxy-4-methylphenyl)-3-hydroxypropyl)-1H-benzo[d]imidazole-5-carboxylic acid] | 125
COc1cc([C@@H](O)[C@H](Cn2cc3cccc(C(=O)O)c3n2)OC2CCCC2)ccc1C1CC1 [Compound 125a] | 80.7
COc1cc([C@@H](O)[C@H](Cc2nc3cc(C(=O)O)ccc3n2C)OCC2CCC2)cc(OC)c1C [Compound 119a, 2-[(2S,3R)-2-(cyclobutylmethoxy)-3-(3,5-dimethoxy-4-methyl-phenyl)-3-hydroxy-propyl]-1-methyl-benzimidazole-5-carboxylic acid] | > 10000
COC(=O)c1cn(C[C@H](OCC2CCC2)[C@H](O)c2cc(OC)c(C)c(OC)c2)cc1CC(=O)O [Compound 117a] | 61.9
COc1cc([C@H](O)[C@H](Cn2cc3cccc(C(N)=O)c3n2)OC2CCCC2)ccc1F [Compound 135] | > 10000
COc1cc([C@@H](O)[C@H](Cn2cc3cccc(C(=O)O)c3n2)OC2CCCCC2)cc(OC)c1C [Compound 140] | 11.8
COc1cc([C@@H](O)[C@H](Cn2cc3cccc(C(=O)O)c3n2)OC2CCCC2)ccc1F [Compound 139] | 1350
